We go through two compounds from ChEMBL document CHEMBL1148998, “Limonoids from the seeds of Melia azedarach” (1986).

Test [1] deals with Klebsiella pneumoniae. The test can be described thus: Antibacterial activity against Klebsiella pneumoniae at 10 mg/10 ml dimethylformamide. In kind it is functional.
The test system of test [2] is Salmonella typhimurium. Nature of the test: Antibacterial activity against Salmonella Typhimurium at 10 mg/10 ml dimethylformamide. In kind it is functional, Salmonella enterica subsp. enterica serovar Typhimurium.
Test [3] has as its system Escherichia coli. The test can be described thus: Antibacterial activity against Escherichia coli at 10 mg/10 ml dimethylformamide. It counts as functional.
In test [4] the test system is Vibrio cholerae. The test can be described thus: Antibacterial activity against Vibrio cholerae at 10 mg/10 ml dimethylformamide. It counts as functional.
The subject of test [5] is Klebsiella pneumoniae. The test can be described thus: Antibacterial activity against Klebsiella pneumoniae at 8 mg/10 ml dimethylformamide. It counts as functional.
The subject of test [6] is Escherichia coli. Nature of the test: Antibacterial activity against Escherichia coli at 8 mg/10 ml dimethylformamide. It counts as functional.
In test [7] the test system is Escherichia coli. Nature of the test: Antibacterial activity against Escherichia coli at 2 mg/10 ml dimethylformamide. It counts as functional.
The test system of test [8] is Klebsiella pneumoniae. The test can be described thus: Antibacterial activity against Klebsiella pneumoniae at 4 mg/10 ml dimethylformamide. It counts as functional.
The subject of test [9] is Salmonella typhimurium. Nature of the test: Antibacterial activity against Salmonella Typhimurium at 8 mg/10 ml dimethylformamide. In kind it is functional, Salmonella enterica subsp. enterica serovar Typhimurium.
For test [10], the system named is Klebsiella pneumoniae. Nature of the test: Antibacterial activity against Klebsiella pneumoniae at 2 mg/10 ml dimethylformamide. In kind it is functional.
The subject of test [11] is Vibrio cholerae. Nature of the test: Antibacterial activity against Vibrio cholerae at 6 mg/10 ml dimethylformamide. It counts as functional.
Test [12] concerns Salmonella typhimurium. Nature of the test: Antibacterial activity against Salmonella Typhimurium at 4 mg/10 ml dimethylformamide. It counts as functional, Salmonella enterica subsp. enterica serovar Typhimurium.
In test [13] the test system is Salmonella typhimurium. Nature of the test: Antibacterial activity against Salmonella Typhimurium at 2 mg/10 ml dimethylformamide. In kind it is functional, Salmonella enterica subsp. enterica serovar Typhimurium.
Test [14] relates to Salmonella typhimurium. The test can be described thus: Antibacterial activity against Salmonella Typhimurium at 6 mg/10 ml dimethylformamide. In kind it is functional, Salmonella enterica subsp. enterica serovar Typhimurium.
Test [15] deals with Vibrio cholerae. The test can be described thus: Antibacterial activity against Vibrio cholerae at 4 mg/10 ml dimethylformamide. It counts as functional.
Test [16] has as its system Vibrio cholerae. Nature of the test: Antibacterial activity against Vibrio cholerae at 8 mg/10 ml dimethylformamide. In kind it is functional.
For test [17], the system named is Klebsiella pneumoniae. Nature of the test: Antibacterial activity against Klebsiella pneumoniae at 6 mg/10 ml dimethylformamide. It counts as functional.
Test [18] concerns Escherichia coli. The test can be described thus: Antibacterial activity against Escherichia coli at 6 mg/10 ml dimethylformamide. It counts as functional.
Test [19] relates to Escherichia coli. The test can be described thus: Antibacterial activity against Escherichia coli at 4 mg/10 ml dimethylformamide. In kind it is functional.
Test [20] has as its system Vibrio cholerae. The test can be described thus: Antibacterial activity against Vibrio cholerae at 2 mg/10 ml dimethylformamide. It counts as functional.

Regarding `CN[C@@H]1[C@H](O[C@H]2[C@H](O[C@H]3[C@H](O)[C@@H](O)[C@H](N=C(N)N)[C@@H](O)[C@@H]3N=C(N)N)O[C@@H](C)[C@]2(O)C=O)O[C@@H](CO)[C@H](O)[C@H]1O` [STREPTOMYCIN], the “inhibition zone (IZ)” value is on record as 10 mm in the test on Klebsiella pneumoniae [1], 9 mm with Salmonella typhimurium [2], 8 mm in the test with Escherichia coli [3] and 12 mm in the test with Vibrio cholerae [4].

As to `CC(=O)OC1=C2C(C)(C)[C@@H](O[C@@H]3O[C@@H](C)[C@H](O)[C@@H](O)[C@H]3O)C=C[C@]2(C)[C@H]2[C@H](O)C[C@@]3(C)[C@H](c4ccoc4)C[C@H]4O[C@]43[C@]2(C)C1=O`, the “inhibition zone (IZ)” value came to 16 mm in the test on Klebsiella pneumoniae [5]; 18 mm in the test with Klebsiella pneumoniae [1]; 14 mm with Escherichia coli [6]; 10 mm in the test on Escherichia coli [7]; 16 mm in the test with Salmonella typhimurium [2]; 12 mm in the test on Klebsiella pneumoniae [8]. For the same compound, the “inhibition zone (IZ)” value in the test on Salmonella typhimurium [9] is 15 mm; in the test with Klebsiella pneumoniae [10], 10 mm; with Vibrio cholerae [11], 17 mm; in the test with Salmonella typhimurium [12], 12 mm; with Salmonella typhimurium [13], 11 mm; in the test on Salmonella typhimurium [14], 13 mm. For the same compound, the “inhibition zone (IZ)” value with Vibrio cholerae [15] came to 15 mm; in the test on Vibrio cholerae [16] it was 18 mm; with Escherichia coli [3], 15 mm; in the test with Vibrio cholerae [4] it was 20 mm; in the test with Klebsiella pneumoniae [17] it was 14 mm; in the test with Escherichia coli [18] it was 12 mm. Besides, the results for the “inhibition zone (IZ)” value with Escherichia coli [19] and with Vibrio cholerae [20] were 11 mm and 13 mm, respectively.
